The text below walks through data of US20160185774A1, “Anti-Infective Compounds” (priority 2013, published 2016).

The subject of the assay is M. tuberculosis. Nature of the assay: microbe, parasite or virus in culture. The format is cell-based. To be noted: Mycobacterium tuberculosis, 120 h; read-out: QUM (MIC80).

In brackets after ≈: the same amount, converted by molar mass.

`Cc1nc2cc(F)ccn2c1C(=O)NCc1ccc(N2CCC(c3ccc(OC(F)(F)F)cc3)CC2)cc1` [Compound 350]: the MIC80 is under 1 µM.
For `CCc1nc2ccc(F)cn2c1C(=O)NCc1ccc(N2CCN(c3ccc(Cl)cc3)CC2)cc1` [Compound 77], the MIC80 is under 1 µM.
As for `CCc1nc2c(Br)cccn2c1C(=O)NCc1ccc(N2CCN(c3ccc(C)cc3)CC2)cc1` [Compound 97], the figure is under 1 µM; as for `CCc1nc2c(C)cccn2c1C(=O)NCc1ccc(N2CCC(c3ccc(C)cc3)CC2)cc1` [Compound 144], under 1 µM.
With `CCc1nc2c(F)cccn2c1C(=O)NCc1ccc(N2CCN(c3ccc(OC)cc3)CC2)cc1` [Compound 32] the figure was under 1 µM; with `CCc1nc2cc(Cl)ccn2c1C(=O)NCc1cccc(C(=O)NCc2ccc(F)cc2)c1` [Compound 329], 1 to 20 µM (≈ 0.465 to 9.3 µg/mL); with `CCc1nc2cc(C(F)(F)F)ccn2c1C(=O)NCc1ccc(N2CCC(c3ccc(C(F)(F)F)cc3)CC2)cc1` [Compound 26], under 1 µM.
As for `CCc1nc2cc(C(F)(F)F)ccn2c1C(=O)NCc1ccc(N2CCN(c3ccc(C(F)(F)F)cc3)CC2)cc1` [Compound 206], the MIC80 is under 1 µM.
As for `CCc1nc2cc(F)ccn2c1C(=O)NCc1ccc(N2CCN(c3ccc(Cl)cc3)CC2)cc1` [Compound 90], the figure is under 1 µM.
For `CCc1nc2cc(F)ccn2c1C(=O)NCc1ccc(N2CCN(c3ccc(OC)cc3)CC2)cc1` [Compound 74], the MIC80 is under 1 µM.
In the case of `CCc1nc2cc(F)ccn2c1C(=O)NCc1ccc(N2CCN(c3ccc(C)cc3)CC2)cc1` [Compound 93], the MIC80 was under 1 µM.
As for `Cc1nc2cc(Cl)ccn2c1C(=O)NCc1ccc(N2CCC(c3ccc(OC(F)(F)F)cc3)CC2)cc1` [Compound 300], the figure is under 1 µM; as for `CCc1nc2ccccn2c1C(=O)NCc1ccc(N2CCC(c3ccc(C)cc3)CC2)cc1` [Compound 157], under 1 µM.
Turning to `CCc1nc2c(C)cccn2c1C(=O)NCc1ccc(N2CCC(c3ccc(C(F)(F)F)cc3)CC2)cc1` [Compound 145], the MIC80 is under 1 µM.
As for `CCc1nc2ccc(Cl)cn2c1C(=O)NCc1ccc(N2CCC(c3ccc(OC)cc3)CC2)cc1` [Compound 16], the figure is under 1 µM; as for `CCc1nc2cc(Cl)ccn2c1C(=O)NCc1csc(-c2ccc(OC(F)(F)F)cc2)n1` [Compound 279], under 1 µM; as for `CCc1nc2cc(Cl)ccn2c1C(=O)NCc1ccc(N2CCC(c3ccc(OC)cc3)CC2)cc1` [Compound 205], under 1 µM.
As for `CCc1nc2ccc(OC)cn2c1C(=O)NCc1ccc(N2CCC(c3ccc(Cl)cc3)CC2)cc1` [Compound 172], the figure is under 1 µM.
`CCc1nc2c(Br)cccn2c1C(=O)NCc1ccc(N2CCC(c3ccc(OC(F)(F)F)cc3)CC2)cc1` [Compound 185]: the MIC80 lay in the range of 1 to 20 µM (≈ 0.601 to 12 µg/mL).
With `CCc1nc2c(Cl)cccn2c1C(=O)NCc1ccc(N2CCN(c3ccc(C)cc3)CC2)cc1` [Compound 160] the figure was under 1 µM; with `CCc1nc2c(C)cccn2c1C(=O)NCc1ccc(N2CCC(c3ccc(Cl)cc3)CC2)cc1` [Compound 173], under 1 µM; with `CCc1nc2cc(C(F)(F)F)ccn2c1C(=O)NCc1ccc(N2CCC(c3ccc(Cl)cc3)CC2)cc1` [Compound 186], under 1 µM.
For the compound `CCc1nc2ccc(C(F)(F)F)cn2c1C(=O)NCc1ccc(N2CCN(c3ccc(OC(F)(F)F)cc3)CC2)cc1` [Compound 188], the MIC80 was under 1 µM.
With `CCc1nc2cc(C(F)(F)F)ccn2c1C(=O)NCc1ccc(N2CCN(c3ccc(C)cc3)CC2)cc1` [Compound 106] the figure was under 1 µM; with `CCc1nc2c(Cl)cccn2c1C(=O)NCc1ccc(N2CCC(c3ccccc3)CC2)cc1` [Compound 190], under 1 µM; with `CCc1nc2c(OC)cccn2c1C(=O)NCc1ccc(N2CCC(c3ccc(OC)cc3)CC2)cc1` [Compound 152], 1 to 20 µM (≈ 0.499 to 9.97 µg/mL).
For `CCc1nc2ccc(Cl)cn2c1C(=O)NCc1ccc(N2CCC(C(=O)c3ccc(F)cc3)CC2)cc1` [Compound 240], the MIC80 was under 1 µM.
For `CCc1nc2c(C)cccn2c1C(=O)NCc1ccc(N2CCC(c3ccccc3)CC2)cc1` [Compound 73], the MIC80 is under 1 µM.
With `CCc1nc2cc(F)ccn2c1C(=O)NCc1ccc(N2CCC(c3ccc(OC)cc3)CC2)cc1` [Compound 14] the figure was under 1 µM; with `CCc1nc2cc(Cl)ccn2c1C(=O)NCc1ccc(C(=O)N(C)Cc2ccc(F)cc2)cc1` [Compound 318], 1 to 20 µM (≈ 0.479 to 9.58 µg/mL); with `CCc1nc2ccc(OC)cn2c1C(=O)NCc1ccc(N2CCN(c3ccc(OC)cc3)CC2)cc1` [Compound 111], under 1 µM.
With `CCc1nc2cc(C(F)(F)F)ccn2c1C(=O)NCc1ccc(N2CCN(c3ccc(OC)cc3)CC2)cc1` [Compound 96] the figure was under 1 µM.
As for `CCc1nc2ccc(F)cn2c1C(=O)NCc1ccc(N2CCC(c3ccc(Cl)cc3)CC2)cc1` [Compound 162], the figure is under 1 µM; as for `CCc1nc2c(OC)cccn2c1C(=O)NCc1ccc(N2CCN(c3ccc(OC(F)(F)F)cc3)CC2)cc1` [Compound 200], 1 to 20 µM (≈ 0.554 to 11.1 µg/mL).
Consider `CCc1nc2c(OC)cccn2c1C(=O)NCc1ccc(N2CCC(c3ccccc3)CC2)cc1` [Compound 177], for which the MIC80 was under 1 µM.
With `CCc1nc2ccc(C)cn2c1C(=O)NCc1ccc(N2CCN(c3ccc(C)cc3)CC2)cc1` [Compound 65] the figure was under 1 µM.
Take `CCc1nc2cc(OC)ccn2c1C(=O)NCc1ccc(N2CCN(c3ccc(OC)cc3)CC2)cc1` [Compound 110]: the MIC80 was under 1 µM.
Take `CCc1nc2c(F)cccn2c1C(=O)NCc1ccc(N2CCC(c3ccc(Cl)cc3)CC2)cc1` [Compound 176]: the MIC80 was under 1 µM.
As for `CCc1nc2ccc(Cl)cn2c1C(=O)NCc1ccc(N2CCC(C(=O)Cc3ccc(F)cc3)CC2)cc1` [Compound 242], the figure is under 1 µM; as for `CCc1nc2cc(C(F)(F)F)ccn2c1C(=O)NCc1ccc(N2CCN(c3ccc(F)cc3)CC2)cc1` [Compound 86], under 1 µM.
As for `CCc1nc2cc(Cl)ccn2c1C(=O)NCc1ccc(NC2C3CC4CC(C3)CC2C4)cc1` (centres unmarked) [Compound 324], the figure is under 1 µM; as for `CCc1nc2cc(Cl)ccn2c1C(=O)NCc1ccc(OCC23CC4CC(CC(C4)C2)C3)cc1` [Compound 320], under 1 µM.
With `CCc1nc2ccc(OC)cn2c1C(=O)NCc1ccc(N2CCN(c3ccc(C)cc3)CC2)cc1` [Compound 100] the figure was under 1 µM; with `CCc1nc2c(Cl)cccn2c1C(=O)NCc1ccc(N2CCN(c3ccc(Cl)cc3)CC2)cc1` [Compound 47], under 1 µM; with `CCc1nc2c(F)cccn2c1C(=O)NCc1ccc(N2CCC(c3ccc(OC)cc3)CC2)cc1` [Compound 15], under 1 µM.
On to `CCc1nc2c(Cl)cccn2c1C(=O)NCc1ccc(N2CCC(c3ccc(OC)cc3)CC2)cc1` [Compound 98], for which the MIC80 was under 1 µM.
As for `CCc1nc2c(C)cccn2c1C(=O)NCc1ccc(N2CCN(c3ccc(OC(F)(F)F)cc3)CC2)cc1` [Compound 44], the figure is under 1 µM.
With `CCc1nc2c(OC)cccn2c1C(=O)NCc1ccc(N2CCN(c3ccc(C(F)(F)F)cc3)CC2)cc1` [Compound 129] the figure was 1 to 20 µM (≈ 0.538 to 10.8 µg/mL); with `CCc1nc2c(C(F)(F)F)cccn2c1C(=O)NCc1ccc(N2CCC(c3ccc(OC(F)(F)F)cc3)CC2)cc1` [Compound 154], 1 to 20 µM (≈ 0.591 to 11.8 µg/mL).
With `CCc1nc2c(C(F)(F)F)cccn2c1C(=O)NCc1ccc(N2CCC(c3ccc(OC)cc3)CC2)cc1` [Compound 27] the figure was 1 to 20 µM (≈ 0.537 to 10.7 µg/mL); with `Cc1nc2c(F)cccn2c1C(=O)NCc1ccc(N2CCC(c3ccc(C(F)(F)F)cc3)CC2)cc1` [Compound 310], under 1 µM.
`CCc1nc2cc(Br)ccn2c1C(=O)NCc1ccc(N2CCC(c3ccc(OC(F)(F)F)cc3)CC2)cc1` [Compound 191]: the MIC80 was under 1 µM.
`CCc1nc2ccc(C(F)(F)F)cn2c1C(=O)NCc1ccc(N2CCN(c3ccc(C(F)(F)F)cc3)CC2)cc1` [Compound 130]: the MIC80 is under 1 µM.
As for `Cc1nc2cc(Cl)ccn2c1C(=O)NCc1ccc(N2CCC(c3ccc(C(F)(F)F)cc3)CC2)cc1` [Compound 298], the figure is under 1 µM; as for `CCc1nc2ccc(OC)cn2c1C(=O)NCc1ccc(N2CCC(c3ccc(OC)cc3)CC2)cc1` [Compound 123], under 1 µM; as for `CCc1nc2cc(C(F)(F)F)ccn2c1C(=O)NCc1ccc(N2CCN(c3ccccc3)CC2)cc1` [Compound 81], under 1 µM.
As for `CCc1nc2ccc(Cl)cn2c1C(=O)NCc1ccc(N2CCN(c3ccccc3)CC2)cc1` [Compound 68], the figure is under 1 µM.
As for `CCc1nc2ccc(Cl)cn2c1C(=O)NCc1ccc(N2CCC(c3ccc(C(F)(F)F)cc3)CC2)cc1` [Compound 158], the figure is under 1 µM; as for `CCc1nc2ccc(F)cn2c1C(=O)NCc1ccc(N2CCN(c3ccc(C(F)(F)F)cc3)CC2)cc1` [Compound 76], under 1 µM.
In the case of `CCc1nc2ccc(C(F)(F)F)cn2c1C(=O)NCc1ccc(N2CCC(c3ccc(F)cc3)CC2)cc1` [Compound 227], the MIC80 was under 1 µM.
With `CCc1nc2cc(Cl)ccn2c1C(=O)NCc1ccc(N2CCC(C(=O)OCCN3CCOCC3)CC2)cc1` [Compound 337] the figure was under 1 µM.
With `CCc1nc2cc(OC)ccn2c1C(=O)NCc1ccc(N2CCC(c3ccc(C)cc3)CC2)cc1` [Compound 23] the figure was under 1 µM; with `CCc1nc2c(C)cccn2c1C(=O)NCc1ccc(N2CCN(c3ccc(OC)cc3)CC2)cc1` [Compound 38], under 1 µM.
As for `CCc1nc2c(F)cccn2c1C(=O)NCc1ccc(N2CCC(c3ccc(F)cc3)CC2)cc1` [Compound 148], the figure is under 1 µM; as for `CCc1nc2cc(Br)ccn2c1C(=O)NCc1ccc(N2CCN(c3ccc(OC(F)(F)F)cc3)CC2)cc1` [Compound 192], under 1 µM.
Regarding `CCc1nc2ccccn2c1C(=O)NCc1ccc(CC2CCOCC2)cc1` [Compound 252], the MIC80 is under 1 µM.
As for `CCc1nc2ccc(Cl)cn2c1C(=O)NCc1ccc(OCC23CC4CC(CC(C4)C2)C3)cc1` [Compound 319], the figure is under 1 µM; as for `CCc1nc2cc(Br)ccn2c1C(=O)NCc1ccc(N2CCC(c3ccc(C)cc3)CC2)cc1` [Compound 219], under 1 µM.
